Literature values as cited in patent US20070281997A1, “TREATMENT OF HOT FLASHES USING MUSCARINIC RECEPTOR ANTAGONISTS” (priority 2006, published 2007).

Test system: hot flashes
Details: men receiving androgen deprivation therapy; previous reports, pilot studies

Structure (SMILES)	efficacy to reduce hot flashes
Fc1ccc([C@@H]2CCNC[C@H]2COc2ccc3c(c2)OCO3)cc1 [paroxetine]	shown efficacy
CC(=O)[C@@]1(O)CC[C@H]2[C@@H]3C=C(C)C4=CC(=O)CC[C@]4(C)[C@H]3CC[C@@]21C [megasterol]	efficacious
COc1ccc(C(CN(C)C)C2(O)CCCCC2)cc1 (stereo not drawn) [venlafaxine]	shown efficacy
